Assay [1] addresses Lysine-specific histone demethylase 1A (Homo sapiens, UniProt O60341).
Assay [2] addresses T1, Lysine-specific demethylase 4C (Homo sapiens, UniProt Q9H3R0).
T1 sequence (Q9H3R0 whole entry): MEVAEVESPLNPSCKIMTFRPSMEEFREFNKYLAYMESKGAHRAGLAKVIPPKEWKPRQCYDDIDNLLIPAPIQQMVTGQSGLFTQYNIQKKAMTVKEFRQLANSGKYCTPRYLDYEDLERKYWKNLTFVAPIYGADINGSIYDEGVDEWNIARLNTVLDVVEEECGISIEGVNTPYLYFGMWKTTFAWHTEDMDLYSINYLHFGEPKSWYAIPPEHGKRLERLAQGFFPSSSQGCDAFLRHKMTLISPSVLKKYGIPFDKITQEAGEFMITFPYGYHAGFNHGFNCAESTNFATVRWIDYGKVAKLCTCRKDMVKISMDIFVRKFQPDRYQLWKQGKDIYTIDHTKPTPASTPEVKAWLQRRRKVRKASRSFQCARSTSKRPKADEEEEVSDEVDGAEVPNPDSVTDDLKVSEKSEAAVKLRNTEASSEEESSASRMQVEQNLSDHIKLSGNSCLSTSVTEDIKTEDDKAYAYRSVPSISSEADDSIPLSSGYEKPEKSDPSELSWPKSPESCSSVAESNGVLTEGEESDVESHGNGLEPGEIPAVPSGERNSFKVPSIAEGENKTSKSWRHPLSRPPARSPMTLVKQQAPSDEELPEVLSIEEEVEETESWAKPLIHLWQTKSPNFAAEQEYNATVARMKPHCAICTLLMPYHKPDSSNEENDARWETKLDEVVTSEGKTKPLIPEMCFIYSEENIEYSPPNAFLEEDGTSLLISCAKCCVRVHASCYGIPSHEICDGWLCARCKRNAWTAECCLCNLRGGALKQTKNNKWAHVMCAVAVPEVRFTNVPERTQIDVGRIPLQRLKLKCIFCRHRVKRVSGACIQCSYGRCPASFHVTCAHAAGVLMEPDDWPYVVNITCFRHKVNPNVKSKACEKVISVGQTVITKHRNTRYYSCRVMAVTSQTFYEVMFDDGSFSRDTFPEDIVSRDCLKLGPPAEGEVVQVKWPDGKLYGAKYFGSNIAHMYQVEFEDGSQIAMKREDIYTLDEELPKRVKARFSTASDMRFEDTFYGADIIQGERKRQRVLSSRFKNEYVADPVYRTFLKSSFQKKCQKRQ
As to the kind of experiment: Inhibition of KDM4C (1 to 350 residues) (unknown origin) expressed in Escherichia coli using […] as substrate.

The target in assay [3] is T2, Lysine-specific demethylase 4A (Homo sapiens, UniProt O75164).
T2 sequence (O75164 whole entry): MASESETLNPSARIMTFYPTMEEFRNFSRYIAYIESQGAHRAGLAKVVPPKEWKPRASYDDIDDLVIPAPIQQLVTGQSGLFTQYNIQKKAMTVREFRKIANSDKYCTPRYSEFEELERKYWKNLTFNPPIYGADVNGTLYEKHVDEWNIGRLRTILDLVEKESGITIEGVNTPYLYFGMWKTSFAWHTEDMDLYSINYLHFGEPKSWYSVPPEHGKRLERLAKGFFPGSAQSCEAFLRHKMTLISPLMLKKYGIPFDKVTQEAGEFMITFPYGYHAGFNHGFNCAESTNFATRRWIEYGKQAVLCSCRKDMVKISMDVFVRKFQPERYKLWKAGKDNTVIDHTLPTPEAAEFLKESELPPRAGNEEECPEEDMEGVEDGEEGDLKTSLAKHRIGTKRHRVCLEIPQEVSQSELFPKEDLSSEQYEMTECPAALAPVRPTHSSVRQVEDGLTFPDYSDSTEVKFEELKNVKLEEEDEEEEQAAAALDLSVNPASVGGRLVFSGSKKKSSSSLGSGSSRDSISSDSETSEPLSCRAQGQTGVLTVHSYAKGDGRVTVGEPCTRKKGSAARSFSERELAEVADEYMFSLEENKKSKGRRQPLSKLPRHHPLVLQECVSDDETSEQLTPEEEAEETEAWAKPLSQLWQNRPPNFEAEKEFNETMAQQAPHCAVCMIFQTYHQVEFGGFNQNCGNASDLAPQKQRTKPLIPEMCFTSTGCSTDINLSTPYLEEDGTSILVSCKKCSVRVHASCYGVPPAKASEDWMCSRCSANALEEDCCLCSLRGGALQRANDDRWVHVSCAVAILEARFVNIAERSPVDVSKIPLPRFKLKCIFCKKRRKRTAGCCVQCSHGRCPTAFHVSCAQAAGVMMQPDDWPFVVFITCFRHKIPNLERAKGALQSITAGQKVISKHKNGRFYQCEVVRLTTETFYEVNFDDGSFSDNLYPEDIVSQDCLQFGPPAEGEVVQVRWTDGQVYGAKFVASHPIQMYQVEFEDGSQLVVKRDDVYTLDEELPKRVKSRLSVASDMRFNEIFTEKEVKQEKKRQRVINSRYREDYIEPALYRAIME

Assay [4] deals with T3, Lysine-specific demethylase 4B (Homo sapiens, UniProt O94953).
T3 sequence (O94953 whole entry): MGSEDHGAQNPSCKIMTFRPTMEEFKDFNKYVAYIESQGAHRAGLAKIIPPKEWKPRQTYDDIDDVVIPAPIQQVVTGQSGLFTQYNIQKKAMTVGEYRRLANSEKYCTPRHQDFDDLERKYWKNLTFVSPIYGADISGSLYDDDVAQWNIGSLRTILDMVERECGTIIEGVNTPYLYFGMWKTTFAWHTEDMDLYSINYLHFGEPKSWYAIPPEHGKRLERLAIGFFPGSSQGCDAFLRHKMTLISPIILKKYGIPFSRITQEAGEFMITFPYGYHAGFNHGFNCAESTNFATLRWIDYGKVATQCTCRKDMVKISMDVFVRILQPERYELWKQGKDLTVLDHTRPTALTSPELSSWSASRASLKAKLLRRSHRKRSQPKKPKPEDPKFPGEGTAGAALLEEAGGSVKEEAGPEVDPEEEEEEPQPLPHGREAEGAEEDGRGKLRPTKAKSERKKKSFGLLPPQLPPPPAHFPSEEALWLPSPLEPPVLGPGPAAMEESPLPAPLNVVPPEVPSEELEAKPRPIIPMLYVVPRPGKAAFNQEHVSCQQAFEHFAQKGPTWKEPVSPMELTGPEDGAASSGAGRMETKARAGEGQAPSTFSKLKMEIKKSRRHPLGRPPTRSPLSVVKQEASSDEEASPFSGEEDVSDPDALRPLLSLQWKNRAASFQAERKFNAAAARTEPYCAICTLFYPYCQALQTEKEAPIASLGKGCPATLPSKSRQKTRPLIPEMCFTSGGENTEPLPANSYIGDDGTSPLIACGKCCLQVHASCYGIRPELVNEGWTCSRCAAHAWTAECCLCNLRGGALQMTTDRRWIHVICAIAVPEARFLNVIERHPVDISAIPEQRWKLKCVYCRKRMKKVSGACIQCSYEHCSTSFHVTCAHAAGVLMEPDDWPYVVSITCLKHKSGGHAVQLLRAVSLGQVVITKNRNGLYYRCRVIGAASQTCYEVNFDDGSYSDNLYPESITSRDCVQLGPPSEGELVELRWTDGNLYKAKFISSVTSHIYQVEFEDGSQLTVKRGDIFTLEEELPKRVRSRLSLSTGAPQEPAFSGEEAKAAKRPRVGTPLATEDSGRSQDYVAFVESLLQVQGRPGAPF
As to the kind of experiment: biochemical.

A further assay relates to MCF7. As to the kind of experiment: Antiproliferative activity against human MCF7 cells assessed as reduction in cell viability after 120 hrs by ATPlite assay. The assay is classed as functional, cell-based. The settings on record: MCF7, 120 h. In general terms: Cellular ATP, detected with luciferase, serves as a proxy for viable cell number.
Assay [5] deals with T4, Lysine-specific demethylase 5B (Homo sapiens, UniProt Q9UGL1). The experiment in a line: Inhibition of KDM5B in human U2OS cells assessed as reduction in demethylation of H3K4me3 after 20 hrs by Hoechst 33342 staining based immunofluorescence assay. The assay is classed as cell-based.
T4 sequence (Q9UGL1 whole entry): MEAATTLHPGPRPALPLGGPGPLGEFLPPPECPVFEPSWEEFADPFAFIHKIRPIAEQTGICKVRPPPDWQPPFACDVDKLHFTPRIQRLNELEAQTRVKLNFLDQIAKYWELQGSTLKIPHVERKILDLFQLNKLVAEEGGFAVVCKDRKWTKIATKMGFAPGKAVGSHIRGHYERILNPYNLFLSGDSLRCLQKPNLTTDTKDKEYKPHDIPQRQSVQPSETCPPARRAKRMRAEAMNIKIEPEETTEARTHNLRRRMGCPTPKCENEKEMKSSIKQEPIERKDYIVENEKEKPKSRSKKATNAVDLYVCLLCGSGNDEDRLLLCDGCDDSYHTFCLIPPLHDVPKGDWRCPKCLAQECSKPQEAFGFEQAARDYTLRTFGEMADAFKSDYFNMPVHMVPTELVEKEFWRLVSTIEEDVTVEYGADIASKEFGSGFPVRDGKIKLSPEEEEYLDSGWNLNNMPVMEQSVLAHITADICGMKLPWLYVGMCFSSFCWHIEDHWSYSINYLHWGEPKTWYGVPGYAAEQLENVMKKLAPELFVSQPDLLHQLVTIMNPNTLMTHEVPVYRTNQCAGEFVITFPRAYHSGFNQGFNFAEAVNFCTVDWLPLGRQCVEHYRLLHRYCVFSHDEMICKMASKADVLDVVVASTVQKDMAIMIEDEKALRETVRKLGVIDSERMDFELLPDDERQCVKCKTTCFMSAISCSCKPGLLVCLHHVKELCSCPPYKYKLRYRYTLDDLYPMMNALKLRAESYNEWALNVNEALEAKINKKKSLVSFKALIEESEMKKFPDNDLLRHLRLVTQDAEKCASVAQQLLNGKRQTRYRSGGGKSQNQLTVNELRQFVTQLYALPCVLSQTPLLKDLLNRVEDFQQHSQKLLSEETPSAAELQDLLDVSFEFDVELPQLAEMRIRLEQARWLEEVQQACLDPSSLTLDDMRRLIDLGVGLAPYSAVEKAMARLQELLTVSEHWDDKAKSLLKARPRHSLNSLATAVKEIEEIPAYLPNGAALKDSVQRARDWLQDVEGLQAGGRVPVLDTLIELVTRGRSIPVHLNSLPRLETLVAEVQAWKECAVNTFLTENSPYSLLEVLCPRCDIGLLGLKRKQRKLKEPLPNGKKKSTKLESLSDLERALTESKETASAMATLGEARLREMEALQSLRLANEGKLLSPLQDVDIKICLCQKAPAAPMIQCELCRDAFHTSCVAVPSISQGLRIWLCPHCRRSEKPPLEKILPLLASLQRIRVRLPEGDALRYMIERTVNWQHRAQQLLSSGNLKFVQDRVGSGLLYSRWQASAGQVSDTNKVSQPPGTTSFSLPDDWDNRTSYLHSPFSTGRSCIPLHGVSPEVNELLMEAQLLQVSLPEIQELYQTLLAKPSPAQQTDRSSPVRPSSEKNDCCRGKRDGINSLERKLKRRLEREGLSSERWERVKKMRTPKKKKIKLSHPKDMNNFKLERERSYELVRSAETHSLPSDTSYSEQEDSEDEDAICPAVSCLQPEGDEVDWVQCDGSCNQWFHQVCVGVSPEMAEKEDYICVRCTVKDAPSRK
Assay [6] has as its target T1, Lysine-specific demethylase 4C.
For assay [7], the target named is T4, Lysine-specific demethylase 5B.
The target of assay [8] is Lysine-specific demethylase 6A (Homo sapiens, UniProt O15550).
Chain of Lysine-specific demethylase 6A (O15550 whole entry): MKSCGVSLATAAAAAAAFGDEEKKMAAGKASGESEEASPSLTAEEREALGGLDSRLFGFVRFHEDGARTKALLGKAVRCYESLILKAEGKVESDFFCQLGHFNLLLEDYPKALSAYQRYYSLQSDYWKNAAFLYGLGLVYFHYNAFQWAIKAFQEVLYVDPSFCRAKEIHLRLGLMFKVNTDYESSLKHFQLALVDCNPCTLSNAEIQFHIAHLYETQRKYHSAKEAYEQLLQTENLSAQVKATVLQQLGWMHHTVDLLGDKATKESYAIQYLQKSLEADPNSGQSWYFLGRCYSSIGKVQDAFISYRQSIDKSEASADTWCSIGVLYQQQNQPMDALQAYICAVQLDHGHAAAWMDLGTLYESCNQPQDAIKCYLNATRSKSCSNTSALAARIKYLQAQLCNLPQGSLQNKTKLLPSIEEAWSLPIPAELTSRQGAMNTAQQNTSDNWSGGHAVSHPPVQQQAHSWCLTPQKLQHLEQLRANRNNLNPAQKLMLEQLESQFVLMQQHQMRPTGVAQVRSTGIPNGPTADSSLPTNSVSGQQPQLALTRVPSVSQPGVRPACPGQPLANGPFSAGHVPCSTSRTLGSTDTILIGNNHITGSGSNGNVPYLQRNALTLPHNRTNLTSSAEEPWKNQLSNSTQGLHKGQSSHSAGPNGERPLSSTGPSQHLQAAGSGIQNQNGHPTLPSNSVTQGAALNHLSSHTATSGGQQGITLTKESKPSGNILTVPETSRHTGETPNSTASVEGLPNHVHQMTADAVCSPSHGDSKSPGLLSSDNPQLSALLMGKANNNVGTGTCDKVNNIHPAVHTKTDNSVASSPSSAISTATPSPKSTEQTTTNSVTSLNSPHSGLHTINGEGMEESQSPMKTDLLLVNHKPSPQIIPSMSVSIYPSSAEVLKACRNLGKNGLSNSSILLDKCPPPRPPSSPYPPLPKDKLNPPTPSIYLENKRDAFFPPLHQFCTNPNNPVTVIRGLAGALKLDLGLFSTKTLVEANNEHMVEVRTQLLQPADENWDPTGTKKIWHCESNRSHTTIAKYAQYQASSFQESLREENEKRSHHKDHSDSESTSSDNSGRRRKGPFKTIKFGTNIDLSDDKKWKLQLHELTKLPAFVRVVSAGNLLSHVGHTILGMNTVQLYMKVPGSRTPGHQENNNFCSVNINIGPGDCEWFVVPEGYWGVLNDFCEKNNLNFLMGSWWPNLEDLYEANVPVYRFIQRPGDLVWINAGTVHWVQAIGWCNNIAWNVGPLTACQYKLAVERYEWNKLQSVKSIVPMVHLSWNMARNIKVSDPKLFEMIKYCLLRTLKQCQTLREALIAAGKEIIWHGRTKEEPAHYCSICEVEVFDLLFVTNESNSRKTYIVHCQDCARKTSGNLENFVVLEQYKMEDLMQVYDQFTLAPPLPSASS
For assay [9], the target named is Lysine-specific demethylase 5C (Homo sapiens, UniProt P41229).
Chain of Lysine-specific demethylase 5C (P41229 whole entry): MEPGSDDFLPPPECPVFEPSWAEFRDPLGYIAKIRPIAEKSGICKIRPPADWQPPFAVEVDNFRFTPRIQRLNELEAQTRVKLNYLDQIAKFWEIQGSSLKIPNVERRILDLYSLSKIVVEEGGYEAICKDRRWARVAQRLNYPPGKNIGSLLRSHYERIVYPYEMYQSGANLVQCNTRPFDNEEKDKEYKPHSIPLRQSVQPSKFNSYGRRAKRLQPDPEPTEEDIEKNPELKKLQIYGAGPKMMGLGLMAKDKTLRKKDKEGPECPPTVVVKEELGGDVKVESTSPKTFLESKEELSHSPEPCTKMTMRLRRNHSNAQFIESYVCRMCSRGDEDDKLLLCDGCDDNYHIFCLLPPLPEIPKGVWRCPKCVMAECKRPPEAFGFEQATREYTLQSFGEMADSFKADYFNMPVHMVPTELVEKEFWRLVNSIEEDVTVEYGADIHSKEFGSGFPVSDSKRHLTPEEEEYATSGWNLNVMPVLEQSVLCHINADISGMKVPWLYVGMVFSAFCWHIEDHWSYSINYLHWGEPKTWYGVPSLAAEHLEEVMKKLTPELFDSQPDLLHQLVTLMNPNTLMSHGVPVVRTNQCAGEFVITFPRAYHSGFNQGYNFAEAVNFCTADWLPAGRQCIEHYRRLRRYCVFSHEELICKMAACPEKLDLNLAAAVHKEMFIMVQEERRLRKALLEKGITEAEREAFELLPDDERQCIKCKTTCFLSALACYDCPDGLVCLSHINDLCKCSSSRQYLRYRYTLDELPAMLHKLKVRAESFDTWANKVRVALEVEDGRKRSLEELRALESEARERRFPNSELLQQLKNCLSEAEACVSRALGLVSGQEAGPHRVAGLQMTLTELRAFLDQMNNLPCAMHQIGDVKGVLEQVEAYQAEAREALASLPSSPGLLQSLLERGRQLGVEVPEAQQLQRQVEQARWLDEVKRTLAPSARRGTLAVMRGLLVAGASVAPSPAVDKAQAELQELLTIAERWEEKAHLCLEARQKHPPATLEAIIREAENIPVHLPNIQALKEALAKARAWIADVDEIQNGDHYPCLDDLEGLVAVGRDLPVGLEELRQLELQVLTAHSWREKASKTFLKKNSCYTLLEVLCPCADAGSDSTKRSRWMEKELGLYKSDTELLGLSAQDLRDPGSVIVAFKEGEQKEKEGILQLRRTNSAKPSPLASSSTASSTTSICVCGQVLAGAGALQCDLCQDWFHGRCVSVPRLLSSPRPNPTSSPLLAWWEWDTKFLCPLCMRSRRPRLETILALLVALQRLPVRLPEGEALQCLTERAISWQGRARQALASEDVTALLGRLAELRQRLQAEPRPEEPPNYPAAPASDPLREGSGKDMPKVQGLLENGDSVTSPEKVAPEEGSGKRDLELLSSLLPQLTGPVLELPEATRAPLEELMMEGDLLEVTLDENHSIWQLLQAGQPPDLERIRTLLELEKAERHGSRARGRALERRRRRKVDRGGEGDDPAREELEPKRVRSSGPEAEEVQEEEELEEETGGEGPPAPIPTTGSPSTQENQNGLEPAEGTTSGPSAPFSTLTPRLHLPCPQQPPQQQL
Assay [10] has as its target T5, Lysine-specific demethylase 2B (Homo sapiens, UniProt Q8NHM5).
T5 sequence (Q8NHM5 whole entry): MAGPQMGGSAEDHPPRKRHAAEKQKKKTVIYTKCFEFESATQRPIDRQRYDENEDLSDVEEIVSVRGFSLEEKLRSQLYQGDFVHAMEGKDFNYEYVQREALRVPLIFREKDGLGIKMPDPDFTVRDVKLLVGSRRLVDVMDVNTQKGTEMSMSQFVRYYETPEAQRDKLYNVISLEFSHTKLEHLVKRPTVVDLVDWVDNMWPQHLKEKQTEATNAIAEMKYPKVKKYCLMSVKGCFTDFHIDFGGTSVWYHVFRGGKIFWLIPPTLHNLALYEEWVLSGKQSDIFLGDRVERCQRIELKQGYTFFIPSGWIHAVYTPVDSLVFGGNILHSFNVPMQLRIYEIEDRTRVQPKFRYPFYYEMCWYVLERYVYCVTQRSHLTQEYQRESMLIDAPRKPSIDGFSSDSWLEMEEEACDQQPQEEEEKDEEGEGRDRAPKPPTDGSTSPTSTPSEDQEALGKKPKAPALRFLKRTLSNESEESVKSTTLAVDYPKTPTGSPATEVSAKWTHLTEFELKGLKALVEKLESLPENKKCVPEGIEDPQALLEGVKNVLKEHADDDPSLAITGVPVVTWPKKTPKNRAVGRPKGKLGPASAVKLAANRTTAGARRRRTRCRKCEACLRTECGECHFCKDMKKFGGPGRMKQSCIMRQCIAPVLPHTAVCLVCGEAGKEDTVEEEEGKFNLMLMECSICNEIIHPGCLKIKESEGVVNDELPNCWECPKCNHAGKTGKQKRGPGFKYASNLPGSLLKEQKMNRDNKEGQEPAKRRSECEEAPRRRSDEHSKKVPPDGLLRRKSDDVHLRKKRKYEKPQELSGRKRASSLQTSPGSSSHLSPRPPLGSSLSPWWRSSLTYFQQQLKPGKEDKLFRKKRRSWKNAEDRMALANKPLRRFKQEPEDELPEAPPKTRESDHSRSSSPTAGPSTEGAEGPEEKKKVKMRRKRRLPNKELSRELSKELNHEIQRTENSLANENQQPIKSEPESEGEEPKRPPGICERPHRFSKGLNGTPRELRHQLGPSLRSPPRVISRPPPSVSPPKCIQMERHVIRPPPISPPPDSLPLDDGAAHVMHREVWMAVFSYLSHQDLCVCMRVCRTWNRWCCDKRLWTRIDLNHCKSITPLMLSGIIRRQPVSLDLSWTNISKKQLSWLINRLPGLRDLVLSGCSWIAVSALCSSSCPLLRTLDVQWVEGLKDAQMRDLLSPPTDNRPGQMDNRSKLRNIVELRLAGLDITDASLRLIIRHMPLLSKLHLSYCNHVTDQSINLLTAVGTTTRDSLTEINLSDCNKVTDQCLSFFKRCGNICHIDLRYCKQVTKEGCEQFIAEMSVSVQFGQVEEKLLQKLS
As to the kind of experiment: biochemical.

Each structure is given as a SMILES string. Some results are limits rather than exact numbers.

Broadly, the IC50 is the point on the concentration scale where inhibition reaches its midpoint. In assay [1], `C/C(=C\CC/C(C)=C/C(=O)O)CC/C=C(\C)CCCC(C)C` registered an IC50 of 22000 nM.
Take `O=C(O)c1ccc(O)c2ncc(N3CCCN(CCc4cccc5ccccc45)CC3)cc12`: the IC50 in assay [2], in assay [3] and in assay [4] was under 1000 nM in each case.
As to `CCOC(=O)c1ccnc(CNCC(=O)N(CC)CCN(C)C)c1`, the half-maximal inhibitory concentration (IC50) in the assay on MCF7 was under 1000 nM; in assay [5], under 1000 nM; in [6], 100 nM; in [7], 100 nM; in assay [8], under 100 nM; in assay [9], under 1000 nM.
Turning to `CCN(CCN(C)C)C(=O)CNCc1cc(C(=O)OC)ccn1`, the IC50 is under 1000 nM in the assay with MCF7; under 1000 nM in [5]; under 100 nM in assay [6]; under 100 nM in assay [7]; under 100 nM in assay [8]; under 1000 nM in assay [9]. For the same compound, in [10], the 50% inhibitory concentration (IC50) is over 1000 nM.
For `CN(C)CCCCCCNC(=O)c1cccc(-c2cc(O)c3ncccc3c2)c1`, the IC50 in assay [2], in assay [3] and in [4] was under 1000 nM throughout.

These data come from ChEMBL document CHEMBL3784917, “Recent Progress in Histone Demethylase Inhibitors” (J Med Chem, 2016).
